Source: patent US20080269335A1, “Crth2 Receptor Antagonists” (priority 2004, published 2008)
Read-outs that look alike come from different tables or passages of the source.

Assays:
[1] = molecular target: T1, CRTh2 receptor (Homo sapiens, UniProt Q9Y5Y4); assay: CRTh2 cAMP functional assay; type: cell-based; parameters: expressed in transfected cells; host or cells: CHO cells; details: CHO cells stably transfected with CRTh2; 10 nM Prostaglandin D2 and 5 μM forskolin; cAMP Alphascreen
T1 sequence (Q9Y5Y4 1-395): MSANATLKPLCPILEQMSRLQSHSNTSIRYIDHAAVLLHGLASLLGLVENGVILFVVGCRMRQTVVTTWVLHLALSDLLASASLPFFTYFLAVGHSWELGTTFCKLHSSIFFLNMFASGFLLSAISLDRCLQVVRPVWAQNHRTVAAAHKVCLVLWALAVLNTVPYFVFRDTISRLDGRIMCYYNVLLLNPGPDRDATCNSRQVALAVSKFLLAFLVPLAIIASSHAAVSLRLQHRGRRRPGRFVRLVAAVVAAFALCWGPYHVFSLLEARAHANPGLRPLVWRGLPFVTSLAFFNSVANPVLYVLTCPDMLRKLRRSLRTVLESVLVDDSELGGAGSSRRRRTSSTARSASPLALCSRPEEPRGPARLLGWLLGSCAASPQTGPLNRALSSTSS
Method: CRTh2 cAMP Functional Assay Protocol
For each concentration value on the dose-response curve, test compounds are prepared in assay stimulation buffer/DMSO and 5 μL/well is added to an assay plate (384 well, white optiplate).
CHO cells stably transfected with the CRTh2 receptor are prepared (dissociated from a cell culture flask and washed in PBS) to a concentration of 4×10^6/mL in assay stimulation buffer and added to the assay plate ([…]).
The assay plate is incubated at room temperature on a shaker for 15 minutes.
A mix of agonist (10 nM Prostaglandin D2) and 5 μM forskolin is prepared in assay stimulation buffer and added to the assay plate (5 μL/well).
In addition, a cAMP standard is serially diluted in assay stimulation buffer and added to separate empty wells on the assay plate (20 μL/well).
The assay plate is incubated at room temperature on a shaker for 60 minutes.
A cell lysis mix (lysis buffer containing Alphascreen™ donor beads and biotinylated cAMP) is prepared under darkened conditions 60 minutes prior to addition. Alphascreen™ acceptor beads are added to the lysis mix after 60 minutes. The resulting lysis mix is added to all wells of the assay plate (40 μL/well).
The assay plate is sealed with Topseal-S™ and incubated in the dark at room temperature on a shaker for 45 minutes. The plate is then counted using a Packard Fusion™ instrument.
The resulting counts per minute are converted to nM cAMP by using the prepared cAMP standard curve. IC50 values are then determined using Prism™ software.

[2] = molecular target: T1, CRTh2 receptor; assay: Scintillation Proximity Assay (SPA) binding assay, 3H prostaglandin D2; parameters: expressed in transfected cells; host or cells: K562 or CHO cells (membranes)
Method: Scintillation Proximity Assay (SPA) Protocol
Membranes are prepared from K562 or Chinese hamster ovary (CHO) cells stably transfected with human CRTh2 receptors.
The assay is performed in a 96 well U-bottomed polypropylene plate in a final volume of 100 μL. For each concentration of test compound on the dose-response curve, the components of the assay are added sequentially as follows: test compound in DMSO/assay buffer (25 μL), ^3H prostaglandin D2 (25 μL) and CRTh2 membrane fragments (50 μL). The assay is incubated at ambient temperature with shaking for 60 minutes, and then harvested on to filter plates. The plate is dried for 2 hours, prior to addition of Micro-Scint 20™ (50 μL) and sealing with TopSeal-S™. Plates are then counted using a Packard Top Count instrument, each well being counted for 20 minutes. Ki values are determined using Sigma Plot™ software, using the Cheng-Prussoff equation.

[3] = membranes from K562 or CHO cells stably transfected with human CRTh2, 3H prostaglandin D2, read-out: Ki values in the SPA binding assay

IC50 [1] | Ki [2, 3] | SMILES | Ki [2]
190 nM | – | O=C(O)COc1ccc(Br)cc1C1CCCCC1 [Example 3, (4-Bromo-2-cyclohexylphenoxy)acetic acid] | –
138 nM | 70 nM | O=C(O)COc1ccc(Br)cc1C1CCCCCC1 [Example 5, (4-Bromo-2-cycloheptylphenoxy)acetic acid] | –
139 nM | 21 nM | O=C(O)COc1ccc(C(F)(F)F)cc1C1CCCCC1 [Example 13, (2-Cyclohexyl-4-trifluoromethyl-phenoxy)-acetic acid] | –

SMILES | IC50 [1] | Ki [2, 3] | Ki [2]
O=C(O)COc1ccc(Cl)cc1C1CCCCCC1 [Example 2, (4-Chloro-2-cycloheptylphenoxy)acetic acid] | 148 nM | – | 60 nM
